How the values were obtained:
[1] = 25° C.; cited from earlier work
[2] = losses due to evaporation (FIG. 1); type: physicochemical; conditions: 30° C., after 30 days
Excerpt: FIG. 1 is a graph showing losses of isopropyl-N-(m-chlorophenyl) carbamate due to evaporation;

potatoes = assay: sprouting on continued storage after large-scale treatment; type: in vivo
Method: Three to four repeated treatments of the product being stored are carried out in practice at regular time intervals.
A storage aid is therefore also suitable for sprouting suppression in seed potatoes for a limited period of time.
Therefore, seed potatoes must not, in principle, ever be treated directly with a growth regulator.

Row | Compound | vapor pressure [1] | losses due to evaporation [2] | sprouting ability after conventional intensive hot fumigation (FIG. 5) (potatoes)
1 | CC(C)OC(=O)Nc1ccccc1 [IPC, isopropyl-N-phenyl carbamate] | 0.144 mbar | – | –
2 | trifluoromethyl-2-thienyl carbamate | 5.5 mbar | – | –
3 | CCOC(=O)Nc1ccccn1 [ethyl-2-pyridyl carbamate] | 0.1 mbar | – | –
4 | CC(C)OC(=O)Nc1cccc(Cl)c1 [CIPC, isopropyl-N-(m-chlorophenyl)-carbamate] | – | 0.03% | completely suppressed
